Assay [1] concerns the target T1, human FAAH (Fatty Acid Amide Hydrolase) (Homo sapiens (Human), UniProt O00519). Nature of the assay: FAAH inhibition, human FAAH CHO cell lysate (AAMCA fluorescence). Type of assay: biochemical. The text has this: (§1) To assist in assay development stable cell lines for human, murine and rat full length FAAH were developed. […] The full length FAAH was subcloned into the mammalian expression vector, pcDEF.neo, using XbaI and EcoRI restriction sites and used for stable cell line generation.
(§2) The full length murine FAAH was subcloned into the mammalian expression vector, pcDEFneo using either EcoRI (murine) or KpnI and EcoRI (rat) restriction sites. Chinese hamster ovary cells (CHO) were transfected following manufacturers protocol (AMAXA). Forty eight hours post transfection, cells were trypsinized and transferred to 96 well plates in Iscove's DMEM media supplemented with 2 mM Glutamine, 10% fetal calf serum, 1 mg/ml geneticin and HT Supplement (0.1 mM sodium hypoxanthine, 0.016 mM thymidine) in order to isolate single clones. […] Following removal of tissue culture media cells were dislodged following addition of Cellstripper (Mediatech, Inc. Manassas, Va.) and transferred to 96 well black clear bottom assay plate, centrifuged at 1,000 rpm for 3 mins and media removed and replaced with assay buffer (50 mM Tris pH8.0, 1 mM EDTA, 0.1% fatty acid free BSA). The reaction was initiated by addition of fluorescent substrate, AMC Arachidonoyl Amide (Cayman Chemical, Ann Arbor, Mich.) to 1 μM and reaction allowed to proceed for 2 hours at room temperature. Release of fluorescence was monitored in a CytoFluor Multiplate Reader.
CHO cells expressing FAAH were used to prepare either crude cell lysate or microsome fractions. To harvest cells, tissue culture media was decanted, the monolayer washed three times with Ca^++Mg^++ free PBS and cells recovered after 15 min in enzyme free dissociation media (Millipore Corp, Billerica, Mass.). Cells were collected by centrifuging at 2000 rpm for 15 min, and the cell pellet re-suspended with 50 mM HEPES (pH 7.4) containing 1 mM EDTA and the protease inhibitors aprotinin (1 mg/ml) and leupeptin (100 μM). The suspension was sonicated at 4° C. and the cell lysate recovered after centrifuging at 12,000×g (14,600 rpm, SS34 rotor) for 20 min at 4° C. to form a crude pellet of cell debris, nuclei, peroxisomes, lysosomes, and mitochondria; the supernatant or cell lysate was used for FAAH enzyme assay. In some eases, microsomes fractions enriched in FAAH were prepared by centrifuging the cell lysate further at 27,000 rpm (100,000×g) in SW28 rotor for 50 minutes at 4° C. The pellet containing FAAH-enriched microsomes was re-suspend in 50 mM HEPES, (pH 7.4) 1 mM EDTA, and any remaining DNA sheared by passage of material through a 23 gauge needle and aliquots of enzyme were store at −80° C. prior to use.
(§3) Assays are performed on either cell lysate or microsome fractions prepared as described or in whole cell format employing either the fluorescent substrate AAMCA (Cayman chemical, Ann Arbor, Mich.,) or ^3H-anandamide ([ETHANOLAMINE-1-3H] American Radiolabeled Chemicals; 1 mCi/ml). […] AAMCA substrate was used to achieve a final concentration of 1 μM and reaction allowed to proceed at room temperature for 1-3 hours. […] Whole cell assay is conducted with cells harvested after rinsing tissue culture flasks three times with Ca^++Mg^++ free PBS, incubating for 10 min in Enzyme free dissociation media and centrifuging for 5 minutes at 1,000 rpm in table top centrifuge. Cells are resuspended in assay buffer at desired cell number in (4×10^4 cells/assay in 96-well format; 1×10^4 cells/assay in 384-well format) and assayed as described.
Alternatively, assays are performed using anandamide [ethanolamine 1-^3H] (specific activity of 10 Ci/mmol) diluted with cold anandamide to achieve a final assay concentration of 1 μM anandamide (˜50,000 cpm). Enzyme (CHO cell lysate, brain or liver homogenate) is incubated in assay buffer (50 mM Phosphate, pH 8.0, 1 mM EDTA, 200 mM KCl, 0.2% glycerol, 0.1% fatty acid free BSA) with inhibitor at 25° C. for 30 minutes.

In assay [2] the target is T1, human FAAH (Fatty Acid Amide Hydrolase). Briefly: FAAH inhibition, human FAAH CHO whole cell format. The class given is cell-based.
From the text: as §1, §2, §3

pIC50: −log10 of the molar value. Some results are limits rather than exact numbers.

One may read the pIC50 as the negative decadic logarithm of the IC50, by convention in mol/L. Lower therefore signals a high IC50.

T1 sequence (O00519 whole entry): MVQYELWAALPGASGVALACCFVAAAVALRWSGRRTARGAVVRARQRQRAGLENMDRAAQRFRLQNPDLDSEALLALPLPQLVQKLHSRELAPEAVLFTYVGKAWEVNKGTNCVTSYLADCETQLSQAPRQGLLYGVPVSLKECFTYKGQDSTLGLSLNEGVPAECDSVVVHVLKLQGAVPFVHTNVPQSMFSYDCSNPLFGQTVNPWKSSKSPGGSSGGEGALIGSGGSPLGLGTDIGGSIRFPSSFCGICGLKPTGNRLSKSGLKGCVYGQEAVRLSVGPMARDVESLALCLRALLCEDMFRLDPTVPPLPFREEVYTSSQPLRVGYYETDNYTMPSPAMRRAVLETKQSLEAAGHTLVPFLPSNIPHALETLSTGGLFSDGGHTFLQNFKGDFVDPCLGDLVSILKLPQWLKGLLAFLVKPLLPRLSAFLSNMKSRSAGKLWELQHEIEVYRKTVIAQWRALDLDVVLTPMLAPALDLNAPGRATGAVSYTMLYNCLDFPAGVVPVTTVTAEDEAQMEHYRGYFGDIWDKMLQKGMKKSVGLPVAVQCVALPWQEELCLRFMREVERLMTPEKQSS

As for `COCCOCC(=O)N1CCC(c2nc(-c3ccc([S+](C)[O-])cc3)c(Sc3ccc(Cl)cn3)o2)CC1` (stereo not shown) [Example A7.25, 1-(4-{5-[(5-chloropyridin-2-yl)sulfanyl]-4-[4-(methylsulfinyl)phenyl]-1,3-oxazol-2-yl}piperidin-1-yl)-2-(2-methoxyethoxy)ethanone], the negative logarithm of the IC50 (pIC50) is 6.28 in assay [1] and 5.33 in assay [2].
On the same counts, the results for `Clc1ccc(Sc2oc(C3CCOCC3)nc2-c2ccc(N3CCOCC3)nc2)cc1` [Example B5.3, 4-(5-{5-[(4-chlorophenyl)sulfanyl]-2-(tetrahydro-2H-pyran-4-yl)-1,3-oxazol-4-yl}pyridin-2-yl)morpholine] are 7.89 and 7.41.
Take `COCCOCCOCC(=O)N1CCC(c2nc(-c3ccc([S+](C)[O-])cc3)c(Sc3ccc(Cl)cn3)o2)CC1` (stereo not shown) [Example A7.26]: the negative-log IC50 (pIC50) in assay [1] is 6.13; in assay [2] it was 5.18.
Turning to `Clc1ccc(Sc2oc(C3CCOCC3)nc2-c2cnc3cc[nH]c3c2)cc1` [Example B5.12, 6-{5-[(4-chlorophenyl)sulfanyl]-2-(tetrahydro-2H-pyran-4-yl)-1,3-oxazol-4-yl}-1H-pyrrolo[3,2-b]pyridine], the pIC50 is 6.95 in assay [1] and 6.55 in assay [2].
For `C[S+]([O-])c1ccc(-c2nc(C3=CCCCC3)oc2Sc2ccc(Cl)cc2)cc1` (stereo not shown) [Example C6.1, 5-[(4-chlorophenyl)sulfanyl]-2-(cyclohex-1-en-1-yl)-4-[4-(methylsulfinyl)phenyl]-1,3-oxazole], the figures for the pIC50 in assay [1] and in assay [2] were 7.93 and 6.98, respectively.
As to `C[S+]([O-])c1ccc(-c2nc(C3CCN(C(=O)Oc4ccccc4)CC3)oc2Sc2ccc(Cl)cn2)cc1` (stereo not shown) [Example A7.21, phenyl 4-{5-[(5-chloropyridin-2-yl)sulfanyl]-4-[4-(methylsulfinyl)phenyl]-1,3-oxazol-2-yl}piperidine-1-carboxylate], the pIC50 in assay [1] was 7.59; in assay [2], 6.91.
For `Clc1ccc(Sc2oc(C3CCOCC3)nc2-c2cnc3[nH]ncc3c2)cc1` [Example B5.10, 5-{5-[(4-chlorophenyl)sulfanyl]-2-(tetrahydro-2H-pyran-4-yl)-1,3-oxazol-4-yl}-1H-pyrazolo[3,4-b]pyridine], the values for the negative logarithm of the IC50 (pIC50) in assay [1] and in assay [2] were 7.17 and 7.01, respectively.
For `C[S+]([O-])c1ccc(-c2nc(C3CCN(C(=O)OC(C)(C)C)CC3)oc2Sc2ccc(Cl)cn2)cc1` (stereo not shown) [Example A7.13, tert-butyl 4-{5-[(5-chloropyridin-2-yl)sulfanyl]-4-[4-(methylsulfinyl)phenyl]-1,3-oxazol-2-yl}piperidine-1-carboxylate], the negative-log IC50 (pIC50) in assay [1] is 7.17; in assay [2], 6.11.
`CC(C)(O)c1ccc(-c2nc(C3CCOCC3)oc2Sc2ccc(Cl)cc2)cn1` [Example B5.1, 2-(5-{5-[(4-chlorophenyl)sulfanyl]-2-(tetrahydro-2H-pyran-4-yl)-1,3-oxazol-4-yl}pyridin-2-yl)propan-2-ol]: the figures for the pIC50 in assay [1] and in assay [2] were 7.75 and 7.35, respectively.
Regarding `CCOC(=O)N1CCC(c2nc(-c3ccc([S+](C)[O-])cc3)c(Sc3ccc(Cl)cn3)o2)CC1` (stereo not shown) [Example A7.23, ethyl 4-{5-[(5-chloropyridin-2-yl)sulfanyl]-4-[4-(methylsulfinyl)phenyl]-1,3-oxazol-2-yl}piperidine-1-carboxylate], the values for the negative-log IC50 (pIC50) in assay [1] and in assay [2] were 7.21 and 6.36, respectively.
As to `COCCOC(=O)N1CCC(c2nc(-c3ccc([S+](C)[O-])cc3)c(Sc3ccc(Cl)cn3)o2)CC1` (stereo not shown) [Example A7.24, 2-methoxyethyl 4-{5-[(5-chloropyridin-2-yl)sulfanyl]-4-[4-(methylsulfinyl)phenyl]-1,3-oxazol-2-yl}piperidine-1-carboxylate], the results for the negative logarithm of the IC50 (pIC50) in assay [1] and in assay [2] were 6.70 and 5.88, respectively.
For `CS(=O)(=O)c1ccc(-c2nc(C3CCNCC3)oc2Sc2ccc(Cl)cn2)cc1` [Example A7.16, 5-chloro-2-({4-[4-(methylsulfonyl)phenyl]-2-(piperidin-4-yl)-1,3-oxazol-5-yl}sulfanyl)pyridine], in that order: 6.03 and at most 5.00.
For `COC(=O)N1CCC(c2nc(-c3ccc([S+](C)[O-])cc3)c(Sc3ccc(Cl)cn3)o2)CC1` (stereo not shown) [Example A7.17, methyl 4-{5-[(5-chloropyridin-2-yl)sulfanyl]-4-[4-(methylsulfinyl)phenyl]-1,3-oxazol-2-yl}piperidine-1-carboxylate], in that order: 7.12 and 6.26.
For `Clc1ccc(Sc2oc(C3CCOCC3)nc2C2CCNCC2)nc1` [Example A7.31, 5-chloro-2-{[4-(piperidin-4-yl)-2-(tetrahydro-2H-pyran-4-yl)-1,3-oxazol-5-yl]sulfanyl}pyridine], the values for the negative-log IC50 (pIC50) in assay [1] and in assay [2] were 5.00 and at most 5.00, respectively.
As for `Clc1ccc(Sc2oc(C3CCOCC3)nc2-c2ccc(N3CCNCC3)nc2)cc1` [Example B5.9, 1-(5-{5-[(4-chlorophenyl)sulfanyl]-2-(tetrahydro-2H-pyran-4-yl)-1,3-oxazol-4-yl}pyridin-2-yl)piperazine], the pIC50 in assay [1] is 8.02; in assay [2] it was 6.94.
For `Cn1nnc2ccc(-c3nc(C4CCOCC4)oc3Sc3ccc(Cl)cc3)cc21` [Example B5.7, 6-{5-[(4-chlorophenyl)sulfanyl]-2-(tetrahydro-2H-pyran-4-yl)-1,3-oxazol-4-yl}-1-methyl-1H-benzotriazole], the results for the negative logarithm of the IC50 (pIC50) in assay [1] and in assay [2] were 7.04 and 6.77, respectively.
For the molecule `CC(=O)N1CCC(c2nc(-c3ccc([S+](C)[O-])cc3)c(Sc3ccc(Cl)cn3)o2)CC1` (stereo not shown) [Example A7.18, 1-(4-{5-[(5-Chloropyridin-2-yl)sulfanyl]-4-[4-(methylsulfinyl)phenyl]-1,3-oxazol-2-yl}piperidin-1-yl)ethanone], the pIC50 in assay [1] was 6.08; in assay [2], 5.35.
For `Clc1ccc(Sc2oc(C3CCOCC3)nc2C2=CCCNC2)cc1` [Example B5.15, 5-{5-[(4-chlorophenyl)sulfanyl]-2-(tetrahydro-2H-pyran-4-yl)-1,3-oxazol-4-yl}-1,2,3,6-tetrahydropyridine], in that order: 5.34 and at most 5.00.
With `C[S+]([O-])c1ccc(-c2nc(C3CCOCC3)oc2Sc2ccc(Cl)cn2)cn1` (stereo not shown) [Example A7.2, 5-chloro-2-({4-[6-(methylsulfinyl)pyridin-3-yl]-2-(tetrahydro-2H-pyran-4-yl)-1,3-oxazol-5-yl}sulfanyl)pyridine], the values for the pIC50 in assay [1] and in assay [2] were 6.53 and 6.03, respectively.
With `CN1CCC(c2nc(-c3ccc([S+](C)[O-])cc3)c(Sc3ccc(Cl)cn3)o2)CC1` (stereo not shown) [Example A7.20, 5-chloro-2-({2-(1-methylpiperidin-4-yl)-4-[4-(methylsulfinyl)phenyl]-1,3-oxazol-5-yl}sulfanyl)pyridine], the values for the negative-log IC50 (pIC50) in assay [1] and in assay [2] were 5.77 and at most 5.00, respectively.
Take `CN(C)CCOC(=O)N1CCC(c2nc(-c3ccc([S+](C)[O-])cc3)c(Sc3ccc(Cl)cn3)o2)CC1` (stereo not shown) [Example A7.29, 2-(dimethylamino)ethyl 4-{5-[(5-chloropyridin-2-yl)sulfanyl]-4-[4-(methylsulfinyl)phenyl]-1,3-oxazol-2-yl}piperidine-1-carboxylate]: the results for the negative-log IC50 (pIC50) in assay [1] and in assay [2] were 5.72 and at most 5.00, respectively.
In assay [2], `O=C(c1ccc(-c2nc(C3CCOCC3)oc2Sc2ccc(Cl)cc2)cc1)N1CCC(O)CC1` [Example B5.19, (4-{5-[(4-chlorophenyl)sulfanyl]-2-(tetrahydro-2H-pyran-4-yl)-1,3-oxazol-4-yl}phenyl)(4-hydroxypiperidin-1-yl)methanone] showed a pIC50 of 5.57.

The record behind these values is patent US9193697B2, “Oxazole derivatives useful as modulators of FAAH” (MERCK SHARP & DOHME CORP., priority 2010, dated 2015).
